Entries after “also recorded” stand apart in the source; their conditions may differ. Bridge positions count the residues as written; N and C are the ends. Square brackets hold non-standard residues; d marks the D form. Peptide text beside a SMILES is read from it. * marks the point of attachment. Ileψ(thiazoline)Cys = CC[C@H](C)[C@H](N)C1=N[C@H](C(=O)*)CS1; dOrn = NCCC[C@@H](N)C(=O)O
How the values were obtained:
S. aureus [1] = assay: In vitro MIC of nisin alone or in combination (log reduction of viable S. aureus); type: cell-based; conditions: FIG. 11
Experimental: In order to determine if nisin could function in a synergistic way with other antimicrobials to treat (e.g., kill and/or inhibit growth of) bacteria in vitro, the minimum inhibitory concentration (MIC) of nisin alone or nisin in combination with either mupirocin, neomycin or gentamicin were tested. The MIC was determined by calculating the log reduction of viable S. aureus following incubation with the amounts of nisin and other antimicrobials as indicated in FIG. 11.

S. aureus [2] = assay: Superficial skin abrasion / superficial wound skin infection model; type: in vivo; conditions: for synergy with nisin in the skin infection model: used in combination with nisin; for synergy with mupirocin in the skin infection model: used in combination with mupirocin
Experimental: Mice provided a superficial skin abrasion and inoculated with S. aureus as described in Example 2 were treated with a composition comprising a combination of 6% nisin and 0.1% gentamicin.
In order to determine if nisin could function in a synergistic way with other antimicrobials to treat (e.g., kill and/or inhibit growth of) bacteria in a superficial wound model (See Example 2), nisin was used in combination with either neomycin or gallidermin and tested.
In order to determine if nisin or gallidermin could function in a synergistic way with other antimicrobials to treat (e.g., kill and/or inhibit growth of) bacteria in a superficial wound model (See Example 2), nisin or gallidermin were used in combination with either gentamicin and mupirocin, respectively, and tested. Nisin did synergize with gentamicin and gallidermin did synergize with mupirocin to reduce bacterial counts in the skin infection model.
In order to determine if mupirocin could function in a synergistic way with bacitracin to treat (e.g., kill and/or inhibit growth of) bacteria in a superficial wound model (See Example 2), mupirocin was used in combination with bacitracin and tested for the ability to treat bacteria.

[3] = tested on: S. aureus strain resistant to mupirocin; assay: Mupirocin-resistant S. aureus infection in abraded mouse skin; type: in vivo; conditions: FIG. 3
Experimental: (§1) Mouse Skin Infection Model: An overnight culture of S. aureus grown in tryptic soy broth (SA8; range from 1 to 6×10^9 CFUs/mL) was centrifuged at 4000×g for 10 minutes and resuspended in an equal volume of phosphate buffered saline (PBS). The bacteria were diluted to a percent transmittance of 40 (Spectronic 20D+) and diluted a subsequent 1:1000 in PBS for a final bacteria concentration of about 3×10^5. SKH1 (hrhr) hairless mice (Charles River) were sedated with 0.2 mL of ketamine (80 mg/kg) and xylazine (32 mg/kg) delivered intraperitoneally. The upper back of the mice were scrubbed with a 70% alcohol wipe and allowed to dry. Fine abrasions were made on the backs' of the mice between the shoulders using 150 grit sandpaper. Bacteria were swabbed over the abraded area with a sterile, cotton-tipped applicator until the area was saturated with the solution.
Topical Ointment: 74 g of PEG 400 and 24 g of PEG 3350 were added to a 250 mL glass beaker and heated until all of the PEG 3350 was melted. […]
Treatment of Infected Skin with Topical Ointment: Treatments aimed to eradicate S. aureus skin infections in the mouse model were started on the morning after infection (Day 1). […] After mixing by vortex, 50 μL of each sample was streaked onto blood agar plates, incubated at 37° C. overnight, and the colonies were counted and compared to untreated controls. […]

S. aureus [4] = assay: Suture skin infection (deep tissue infection) mouse model; type: in vivo; conditions: deep cut in mouse, S. aureus introduced into the incision; FIG. 13
Experimental: It was determined whether nisin and mupirocin, either alone or in combination with each other, would be able to treat S. aureus in a deep tissue infection model. A suture skin infection model was generated in which a deep cut (e.g., one needing sutures to close) was made in a mouse and S. aureus introduced into the incision. […] Thus, a combination of nisin and mupirocin can be used to treat a deep tissue infection as well as a […] infection.

P. aeruginosa [5] = assay: P. aeruginosa infection in abraded mouse skin; type: in vivo; conditions: FIG. 4
S. aureus [6] = assay: Mouse skin infection model: S. aureus infection in abraded mouse skin; type: in vivo; conditions: for efficacy compared with independent administration of nisin: PEG ointment or G&W petrolatum base bacitracin formulation, FIG. 2; for additive or synergistic effect when combined with nisin: skin infection, combined with nisin (See Example 1)
Experimental: as §1
Topical Ointment: 74 g of PEG 400 and 24 g of PEG 3350 were added to a 250 mL glass beaker and heated until all of the PEG 3350 was melted. The solution was stirred well and allowed to cool to room temperature, which results in a smooth, opaque ointment. Powdered nisin and bacitracin were added to the ointment on a w/w basis and stirred until homogenously mixed. For formulations containing mupirocin, 1 g of Bactroban Ointment was weighed into a container and powdered nisin added to 2% or 6% (w/w) and mixed well. Lysostaphin was first dissolve to a concentration of about 150 mg/mL in DI water before mixing into the ointment to give a final concentration of 2% (w/w).
Treatment of Infected Skin with Topical Ointment: Treatments aimed to eradicate S. aureus skin infections in the mouse model were started on the morning after infection (Day 1). About 0.1 g of the topical ointments containing nisin (0, 2, or 6% w/w), mupirocin (0 or 2%), bacitracin (0 or 500U), and lysostaphin (0 or 2% w/w) were swabbed over the infected area 3 times a day on Days 1 and 2 using a sterile, polyester-tipped applicator. The mice were sacrificed by CO2 asphyxiation on the morning of Day 3 and a 0.5-cm^2 patch of skin around the infected area was excise. The skin sample was dissected and placed into a test tube containing 1 mL of 5 mg/mL proteinase K, 20 mg/mL esterase, and 20 mg/mL activated charcoal in PBS to neutralize the activity of the antibacterial agents. Bacteria were dislodged from the skin sample by sonication: 2 minute treatments per sample with alternating 5 seconds at 3 W and 5 seconds at 0 W in a Virsonic 600 with microtip (VirTis). After mixing by vortex, 50 μL of each sample was streaked onto blood agar plates, incubated at 37° C. overnight, and the colonies were counted and compared to untreated controls.
For the following data, except where noted in FIG. 2, all antibiotic formulations were in a common polyethylene glycol (PEG) ointment (PEG 400 plus PEG 3350).

P. aeruginosa [7] = conditions: previously shown; cited from earlier work
[8] = tested on: Staphylococcus aureus ATCC #6538; assay: Inoculated partial thickness wounds in pig; type: in vivo; conditions: treated twice per day, mean ± SD
Experimental: Experimental animals. A young female specific pathogen free (SPF: Looper Farms, North Carolina) pig weighing 25-30 kg was kept in house for two weeks prior to initiating the experiment. The animal was fed a basal diet ad libitum and housed individually in animal facilities (meeting American Association for Accreditation of Laboratory Animal) with controlled temperature (19-21° C.) and lights (12 h/12 h LD). The experimental animal protocols used for this study followed the federal guidelines for the care and use of laboratory animals (U.S. Department of Health and Human Services, U.S. Department of Agriculture). Animals were monitored daily for any observable signs of pain or discomfort. […] A small amount of the inoculum suspension was plated onto culture media to quantitate the exact concentration of viable organisms prior to the experiment. […] At each sampling time, sites were cultured quantitatively. […] Serial dilutions were made and scrub solutions were quantitated using the Spiral Plater System that deposits a small defined amount (50 μl) of suspension over the surface of a rotating agar plate. […]

Compound	ability to synergize in vitro with nisin (S. aureus [1])	synergy with nisin in the skin infection model (S. aureus [2])	synergy with mupirocin in the skin infection model (S. aureus [2])	efficacy compared with independent administration of nisin (S. aureus [6])	additive or synergistic effect when combined with nisin (S. aureus [6])	further results
neomycin	none of the antimicrobials tested (i.e., mupirocin, neomycin, and gentamicin) displayed the ability to synergize in vitro with nisin	did not synergize				
C/C(=C\C(=O)OCCCCCCCCC(=O)O)C[C@@H]1OC[C@H](C[C@@H]2O[C@H]2[C@@H](C)[C@H](C)O)[C@@H](O)[C@H]1O [Mupirocin, mupirocin]	none of the antimicrobials tested (i.e., mupirocin, neomycin, and gentamicin) displayed the ability to synergize in vitro with nisin					activity against mupirocin-resistant S. aureus strain [3]: minimal activity; efficacy in treating S. aureus in suture infection model (S. aureus [4]): very little efficacy; additional activity added to the nisin formulation (P. aeruginosa [5]): does not add any additional activity; decrease in infectious CFUs (S. aureus [6]; abraded mouse skin, drug alone in PEG ointment, 3 times a day on Days 1 and 2, skin sampled Day 3, vs untreated controls, FIG. 1): 3 logs; animals cleared of infection (S. aureus [6]; abraded mouse skin, topical ointment 3 times a day on Days 1 and 2, FIG. 1): Neither drug alone was able to completely clear the infection; activity against P. aeruginosa (P. aeruginosa [7]): poor activity; Av. Count (S. aureus recovered from wounds) ([8]; Day 7 post treatment): 1.63 ± 1.42 Log cfu/ml; Av. Count (S. aureus recovered from wounds) ([8]; two days after initial treatment): 4.96 ± 0.8 Log CFU/ml
gallidermin		did not synergize	did synergize			
CC[C@H](C)[C@H](N)C1=N[C@H](C(=O)N[C@@H](CC(C)C)C(=O)N[C@H](CCC(=O)O)C(=O)N[C@H](C(=O)N[C@H]2CCCCNC(=O)[C@H](CC(N)=O)NC(=O)[C@@H](CC(=O)O)NC(=O)[C@H](Cc3cnc[nH]3)NC(=O)[C@@H](Cc3ccccc3)NC(=O)[C@H]([C@@H](C)CC)NC(=O)[C@@H](CCCN)NC2=O)[C@@H](C)CC)CS1 [bacitracin] ({Ileψ(thiazoline)Cys}-L[dE]IK[dOrn]I[dF]H[dD]N; lactam 4-C)			did not synergize with bacitracin, nor was there an additive benefit; also recorded: does not synergize with or provide additive benefit together with bacitracin	None of these antibacterial agents administered independently, or administered in a composition comprising nisin, were significantly more efficacious than the independent administration of nisin	no additive or synergistic effect was observed	
lysostaphin				None of these antibacterial agents administered independently, or administered in a composition comprising nisin, were significantly more efficacious than the independent administration of nisin	no additive or synergistic effect was observed	
gentamicin	none of the antimicrobials tested (i.e., mupirocin, neomycin, and gentamicin) displayed the ability to synergize in vitro with nisin	did synergize				
